Test results published in article PMC3894558, “Chemical signatures and new drug targets for gametocytocidal drug development” (Scientific Reports, 2014).
Where two headings read alike, the source gives them in different places.

Test system: P. falciparum 3D7 gametocytes
Test: alamarBlue gametocyte viability assay, strain 3D7
Format: cell-based, Plasmodium falciparum
Settings: for Max Resp: DMSO set at 0%, 100 nM epoxomicin set at -100%; call rule not given here
[1] = Malaria Box, stages III-V 3D7 gametocytes
[2] = Malaria Box, stages III-V 3D7 gametocytes, 11 concentrations, 1:3 dilution, read-out: IC50
[3] = Malaria Box, stages III-V 3D7 gametocytes, 11 concentrations, 1:3 dilution

SMILES | reduction of gametocyte viability (Malaria Box screen) | Max Resp (Malaria Box) | Curve Class [1] | IC50 [2] | IC50 (P. falciparum 3D7 gametocytes, mean of at least 3 independent experiments, read-out: Gametocyte IC50) | IC50 [3]
CCC1(C)CC(CCNCc2ccccc2O)(c2ccc(C)cc2)CCO1 (centres unmarked) [MMV019406] | > 75% | -82% | -1.1 | 0.418 µM | < 1 µM | –
Cl.c1ccc2c(NCCCCCCNc3c4c(nc5ccccc35)CCCC4)c3c(nc2c1)CCCC3 [MMV019555] | – | -104% | -1.1 | 4.69 µM | – | –
COc1ccc(N2CCN(C(CNC(=O)C3CCCCC3)c3ccc4c(c3)OCO4)CC2)cc1 (centres unmarked) [MMV019662] | – | -21% | 4 | – | – | Inactive
O=C(Nc1ccc(N2CCN(Cc3ccccc3)CC2)cc1)c1cccs1.O=C(O)C(F)(F)F [MMV019670] | – | 13% | 4 | – | – | Inactive
COc1ccc(C2NCCc3c2[nH]c2ccccc32)cc1CN1CCN(c2ccc(F)cc2)CC1.Cl (centres unmarked) [MMV019690] | – | -89% | -1.1 | 6.62 µM | – | –
O=C(Nc1ccc(N2CCCCC2)c(Cl)c1)c1ccc(Br)o1 [MMV019700] | – | 17% | 4 | – | – | Inactive
Cc1[nH]c(-c2ccc(F)cc2)cc1C(=O)NC1CCN(Cc2ccccc2)CC1 [MMV019738] | – | -61% | -2.2 | 29.6 µM | – | –
Cc1ccc(C)c(Cn2c(N3CCC(C(=O)NCc4cccs4)CC3)nc3ccccc32)c1 [MMV019741] | – | -65% | -2.2 | 37.2 µM | – | –
Cc1ccc(Cl)cc1N1CCN(CCCNC(=O)C2CCN(c3nc4ccccc4[nH]3)CC2)CC1 [MMV019746] | – | -74% | -2.2 | 29.6 µM | – | –
COc1ccc(C(=O)Nc2ccc3nc(N4CCCCC4)cc(C)c3c2)cc1OC [MMV019758] | – | -32% | -3 | – | – | Inactive
COc1cccc(C(=O)Nc2ccc(-c3nc4ccccc4[nH]3)cc2)c1 [MMV019762] | – | -1% | 4 | – | – | Inactive
Cc1cc(C)c2nc(N3CCC(C(=O)NCCCN4CCC(N5CCCCC5)CC4)CC3)sc2c1 [MMV019780] | – | -106% | -1.1 | 4.18 µM | – | –
Fc1ccc2[nH]c3c(NCCCN4CCOCC4)ncnc3c2c1 [MMV019871] | – | -42% | -2.2 | – | – | Inactive
O=C(NC1CCN(Cc2ccccc2)CC1)c1cc(C(=O)NC2CCN(Cc3ccccc3)CC2)cc(C(=O)NC2CCN(Cc3ccccc3)CC2)c1 [MMV019881] | – | -90% | -1.1 | 2.96 µM | – | –
Cl.Clc1cc(Br)ccc1-c1ccc(CNCC2CCNCC2)o1 [MMV019918] | – | -106% | -1.1 | 1.87 µM | – | –
O=C(NCCCN1CCC(N2CCCCC2)CC1)C1=Cc2cc(Br)ccc2OC1 [MMV019995] | – | -99% | -1.1 | 5.26 µM | – | –
Cc1cc(N(C)C)nc(Nc2ccc(NC(=O)Nc3ccccc3)cc2)n1 [MMV020243] | – | -73% | -2.2 | 11.8 µM | – | –
O=C(NC1CCN(Cc2ccccc2)CC1)c1cc(-c2ccncc2)nc2ccc(Cl)cc12 [MMV020275] | – | -48% | -2.2 | – | – | Inactive
COc1ccc(-c2cn3c(C(=O)Nc4ccccc4Cl)c(-c4ccccc4)c4c3n2CCCC4)cc1 [MMV020403] | – | -73% | -2.2 | 23.5 µM | – | –

SMILES | reduction of gametocyte viability (Malaria Box screen) | Max Resp (Malaria Box) | Curve Class [1] | IC50 [2] | IC50 (P. falciparum 3D7 gametocytes, mean of at least 3 independent experiments, read-out: Gametocyte IC50) | IC50 [3]
CCn1c(CN2CCN(Cc3ccccc3)CC2)nc2cc(NC(=O)c3cccs3)ccc21 [MMV020439] | – | -25% | 4 | – | – | Inactive
O=C(NC1CCN(Cc2ccccc2)CC1)c1cc(-c2cccnc2)nc2ccc(Cl)cc12 [MMV020490] | – | -61% | -2.2 | 29.6 µM | – | –
CC1CN(C(=O)c2sc3ccccc3c2Cl)CC(C)O1 (centres unmarked) [MMV020492] | – | -36% | -2.2 | – | – | Inactive
CNCCCNc1ccnc2cc(Cl)ccc12 [MMV020500] | – | -63% | -1.2 | 0.235 µM | – | –
CN(C)CCCNCc1ccc(-c2ccc(F)c(Cl)c2)o1.Cl [MMV020505] | – | -98% | -1.1 | 3.32 µM | – | –
CCN1CCN(Cc2ccc(NC(=O)c3cc4ccc5cccnc5c4[nH]3)cc2)CC1 [MMV020548] | – | -56% | -3 | – | – | Inactive
CC1CCN(Cc2ccc(NC(=O)c3cc4ccc5cccnc5c4[nH]3)cc2)CC1 [MMV020549] | – | -75% | -2.2 | 14.8 µM | – | –
O=C(Nc1ccc(CN2CCOCC2)cc1)c1ccc(-c2cc(Cl)ccc2Cl)o1 [MMV020651] | – | -23% | 4 | – | – | Inactive
CCC(O)c1ccc(Br)cc1NC(=O)c1cccc(Cl)c1 (centres unmarked) [MMV020654] | – | -37% | -1.2 | 2.09 µM | – | –
COc1ccc(-c2nonc2NC(=O)c2cccc(Cl)c2)cc1OC [MMV020660] | – | -67% | -2.2 | 23.5 µM | – | –
CC(=O)Nc1nnc(SCc2c(C)cc(C(C)(C)C)cc2C)s1 [MMV020700] | – | -2% | 4 | – | – | Inactive
COc1cc(-c2nc(-c3ccccc3)c(-c3ccccc3)[nH]2)cc(OC)c1O [MMV020750] | – | -55% | -2.2 | 37.2 µM | – | –
Cl.Oc1ccccc1CNCC12CC3CC(CC(C3)C1)C2 [MMV020788] | – | -43% | -1.2 | 0.105 µM | – | –
COc1ccc(Br)cc1C1Nc2ccc3ccccc3c2C2=C1C(=O)CC(c1ccccc1)C2 (centres unmarked) [MMV020885] | – | -29% | 4 | – | – | Inactive
Cc1ccc(-c2nc3ccccc3o2)cc1NCc1cc(Cc2ccccc2)ccc1O [MMV020912] | – | -63% | -2.2 | 23.5 µM | – | –
CCC(=O)Nc1nnc(Cc2ccc(OC)c(OC)c2)s1 [MMV020942] | – | -19% | 4 | – | – | Inactive
COc1cc(SC)ccc1C(=O)N1CCCC(C)C1 (centres unmarked) [MMV056726] | – | -5% | 4 | – | – | Inactive
CN(C)c1ccc(N=Cc2ccc(N3CCOCC3)cc2)cc1 [MMV073843] | – | -98% | -1.1 | 2.35 µM | – | –
CCOc1ccc(C2N(C)c3ccccc3N2C)cc1 [MMV075490] | – | -38% | -2.2 | – | – | Inactive

SMILES | reduction of gametocyte viability (Malaria Box screen) | Max Resp (Malaria Box) | Curve Class [1] | IC50 [2] | IC50 (P. falciparum 3D7 gametocytes, mean of at least 3 independent experiments, read-out: Gametocyte IC50) | IC50 [3]
Nc1nc(Nc2cccc(F)c2)nc2ccccc12 [MMV080034] | – | -61% | -2.2 | 29.6 µM | – | –
COc1ccc(C=C2SC(Nc3ccc(F)cc3)=NC2=O)c(OC)c1 [MMV084434] | – | -24% | 4 | – | – | Inactive
COc1cc2c(cc1OC)C1=NNC(=O)C1=NC(C)(C)C2 [MMV084940] | – | -133% | -1.1 | 1.32 µM | – | –
COc1ccccc1NC1=C(N2CCCCC2)C(=O)c2ccccc2C1=O [MMV085203] | – | -97% | -2.1 | 7.43 µM | – | –
CCOc1ccc(-n2cc(-c3ccccc3)c3c(SCc4cc(C)ccc4C)ncnc32)cc1 [MMV085471] | – | 1% | 4 | – | – | Inactive
Cc1ccc(C(=O)c2oc3ccc4c(C)cc(=O)oc4c3c2C)cc1 [MMV086103] | – | 0% | 4 | – | – | Inactive
COc1cc(CNCCc2ccc(Cl)cc2)cc(OC)c1O [MMV128432] | – | -81% | -2.1 | 11.8 µM | – | –
CC(C)(C)c1ccc(C(=O)Nc2nc3ccccc3s2)cc1 [MMV142383] | – | -10% | 4 | – | – | Inactive
COc1ccc2nc(C)cc(Nc3ccccc3O)c2c1 [MMV274073] | – | -66% | -2.2 | 23.5 µM | – | –
CCN(CC)CCNc1ncnc2c1[nH]c1ccc(Br)cc12 [MMV305841] | – | -95% | -1.1 | 5.26 µM | – | –
CCn1nc(-c2ccc(C(=O)OC)cc2)nc2c(=O)n(C)c(=O)nc1-2 [MMV306025] | – | -98% | -1.1 | 4.69 µM | – | –
COc1ccc(-c2nc(N3CCN(C(=O)C4CCCCC4)CC3)c3c4c(sc3n2)CCCC4)cc1 [MMV396594] | – | -12% | 4 | – | – | Inactive
CCOc1c(Cl)cc(CNCC(O)c2ccccc2)cc1OC (centres unmarked) [MMV396632] | – | -76% | -2.2 | 9.35 µM | – | –
CCOc1cc(CNC(C)C(O)c2ccccc2)cc(Cl)c1OCC (centres unmarked) [MMV396633] | – | -72% | -2.2 | 11.8 µM | – | –
O=C(NC1CCN(Cc2ccccc2)CC1)c1cc2nc(-c3ccc(Cl)s3)cc(C(F)(F)F)n2n1 [MMV396635] | – | -24% | 4 | – | – | Inactive
Cc1sc(NC(=O)c2ccccc2)c(C(c2cccs2)N2CCN(c3ccccc3)CC2)c1C (centres unmarked) [MMV396652] | – | -1% | 4 | – | – | Inactive
Cc1sc(NC(=O)c2ccco2)c(C(c2cccnc2)N2CCC(Cc3ccccc3)CC2)c1C (centres unmarked) [MMV396663] | – | -85% | -2.1 | 16.6 µM | – | –
CCOC(=O)c1c(C)n(-c2ccccc2)c2ccc(OC(=O)c3cc(OC)c(OC)c(OC)c3)cc12 [MMV396664] | – | -4% | 4 | – | – | Inactive
COc1cc(C(=O)Nc2nc3c(cc4c5c(cccc53)CC4)s2)cc(OC)c1OC [MMV396665] | – | -24% | 4 | – | – | Inactive
